According to patent publication US20010049389A1, “Arthropod-controlling composition” (priority 2000, published 2001):

Tests used:
Format in all cases: in vivo
[1] = tested on: adult smokybrown cockroaches (Periplaneta fuliginosa); assay: Test Example 4: smoking formulation in 28 m^3 chamber, smokybrown cockroaches; details: 10 g smoking (Preparation example 25) in 28 m^3 chamber
Source text: In a test chamber of 3 m×4 m and 2.3 m in height (28 m^3), two plastic cups were put at two corners, wherein each cup has ten (5 males and 5 females) adult German cockroaches (Blattella germanica) therein. Ten grams (10 g) of the smoking obtained in Preparation example 25 and 50g of magnesium oxide were charged into each of the cells in an aluminum container having an aluminum wall. The cell charged magnesium oxide has small holes. The aluminum container was dipped into water in the plastic container set in the test chamber. The smoking was heated to release the vaporized active ingredient by the reaction heats of magnesium oxide with water. After 2 hours, knock-down percentage was observed. Further, the cockroaches were transferred to a clean plastic cup and given foods and water. The mortality was observed after 7 days.
(§1) Furthermore, the same tests were performed except that six (3 males and 3 females) adult smokybrown cockroaches (Periplaneta fuliginosa) and six (3 males and 3 females) adult American cockroaches (Periplaneta americana) were used in place of ten German cockroaches.

[2] = tested on: first-instar larvae of summer fruit tortrix (Adoxophyes orana fasciata); assay: Test Example 19: treated artificial food, summer fruit tortrix larvae; details: 1 ml of 500 ppm dilution (Preparation example 2) in 6 g artificial food, after 6 days
Description: The formulation obtained in Preparation example 2 was diluted with water to make the concentration of the Pyrone Compound to 500 ppm. One milliter (1 ml) of the dilution was added to 6 g of artificial food (Insecta LF produced by Nihon Nosankogyo Co.) in plastic cup having 5.5 cm in diameter. Thirty first-instar larvae of summer fruit tortrix (Adoxophyes orana fasciata) were put into the plastic cup. After 6 days, the mortality was 90% or more.

ants (Formica japonica) = assay: Test Example 14: oil-based aerosol spray, ants; details: about 450 mg of 1.0% oil-based aerosol sprayed, after 2 days
Description: According to Preparation examples 10-14, 1.0% oil-based aerosol of the Pyrone Compound was obtained. In a 200 cc plastic cup having inside wall painted talc for preventing tested ants to escape, about 30 g of soil were set and 10 ants (Formica japonica) were release thereon. The plastic cup was set on the bottom center of a glass cylinder having 20 cm in diameter and 60 cm in height. About 450 mg of the above oil-based aerosol were sprayed to the ants from the upper part of the cylinder. After 10 seconds, the ants were taken out and put into a clean plastic cup having a piece of watermelon peel as food therein. After 2 days, the mortality was observed and the result was 70%.

[3] = tested on: cotton aphids (Aphis gossypii); assay: Test Example 15: foliar spray on cucumber, cotton aphids; details: 500 ppm dilution of flowable (Preparation example 7), 30 ml sprayed, after 6 days
Description: About 30 cotton aphids (Aphis gossypii) were put on a cucumber leaf (in first-leaf stage) grown in a 90 ml plastic cup.
Next day, the formulation obtained in Preparation example 7 was diluted with water containing a spreading agent (Tokurino produced by Nihon Nohyaku Co.) to make the concentration of the Pyrone Compound to 500 ppm. Thirty milliliters (30 ml) of the dilution were sprayed to the cucumber and air-dried. The plastic pot was put in a container and allowed to stand at 22±2° C. in a greenhouse. After 6 days, the mortality was 90% or more.

[4] = tested on: adult pill bugs (Armadillidium vulgare); assay: Test Example 12: oil-based aerosol spray, pill bugs; details: about 450 mg of 1.0% oil-based aerosol sprayed, after 3 days
Description: According to Preparation examples 10-14, 1.0% oil-based aerosol of the Pyrone Compound was obtained. A container (8.75 cm in diameter, 7.5 cm in height, bottom covered 16-mesh iron net and inside wall painted butter for preventing tested pill bugs to escape) having 5 adult pill bugs (Armadillidium vulgare) therein was set on the bottom center of a glass cylinder having 20 cm in diameter and 60 cm in height. About 450 mg of the above oil-based aerosol were sprayed to the pill bugs from the upper part of the cylinder. After 30 seconds, the pill bugs were taken out and put into a clean plastic cup having soil and dead leaves therein. The pill bugs were given food and water and observed after 3 days. The tests were repeated twice. The mortality was 100%. Reference compound was also tested and the mortality was 40%.

[5] = tested on: 4-instar larvae of tobacco cutworm (Spodoptera litura); assay: Test Example 17: treated cabbage leaf disc, feeding damage by tobacco cutworm; details: 50 μg on cabbage leaf disc of 1 cm diameter, after 24 hours, 5 repetitions
Description: A methanol solution (50 μg/20 μl) of the Pyrone Compound was prepared. The solution (20 μl) was painted on a cut leaf disc of cabbage (1 cm in diameter). After vaporizing methanol, the leaf disc was put on a filter paper, which was wet with 1 ml of water, in Petri dish making the painted surface upside. Two 4-instar larvae of tobacco cutworm (Spodoptera litura) were put in the Petri dish. After 24 hours, the damage of the leaf disc was observed and compared with the test result of the non-treated disc. The tests were repeated 5 times.

[6] = tested on: adult smokybrown cockroaches (Periplaneta fuliginosa); assay: Test Example 5: heating fumigant (ceramic plate) in 5.8 m^3 chamber, smokybrown cockroaches; details: heating fumigant (Preparation example 24, 500 mg) at about 200° C. in 5.8 m^3 chamber
Description: On the bottom of a cubic chamber having 1.8 m of side (5.8 m^3), the heating fumigant (ceramic plate) obtained in Preparation example 24 with an electric heater was set in the center. Two plastic cups were put at two corners in the chamber, wherein each cup has ten (5 males and 5 females) adult German cockroaches (Blattella germanica) therein. Two hours after turning on an electric current, the ceramic plate was heated to about 200° C. (200±5° C.) and the active ingredient was vaporized. The heating temperature was estimated by measuring a surface temperature of the ceramic plate with radiation pyrometer (TR-0506C produced by Minolta Company) in advance. Then, the knocked-down cockroaches were counted and the knock-down percentage was calculated. Further, the cockroaches were transferred to a clean plastic cup and given foods and water. The mortality was observed after 7 days.
as §1

[7] = tested on: adult German cockroaches (Blattella germanica); assay: Test Example 3: direct spray of oil solution, knock-down of German cockroaches; details: 1.5 ml of 0.5% oil solution sprayed directly, one minute after spraying
Description: A square of paper (side: 20 cm) was covered on the iron net set on the bottom of the metallic chamber (46 cm×46 cm, 70 cm in height). A container (8.75 cm in diameter, 7.5 cm in height, having 16-mesh net at the bottom and spreading butter on the wall for preventing escape) was set on the paper. In the container, ten (5 males and 5 females) adult German cockroaches (Blattella germanica) were released. By means of spray gun, 1.5 ml of the oil solution obtained in Preparation example 9 was applied to the test insects at a pressure of 0.42 kg/cm^2 from the upper part of the chamber. The container was taken out of the chamber 30 seconds after spraying and the test insects were transferred to a clean plastic cup. One minute after spraying, the knocked-down cockroaches were counted. As a result, the knock-down percentage was 100%. Reference compound was also tested and the knock-down percentage was 42%.

With `Cc1cc(O)c(C(=O)CC(C)C)c(=O)o1` [The Pyrone Compound] the “Knock-down percentage (%)” value ([1]; after 2 hours) was 100%, the “Mortality (%)” value ([1]; after 7 days) was 100% and the mortality [2] was ≥ 90%. For the same compound, the mortality (ants (Formica japonica)) was 70%, the mortality [3] was ≥ 90% and the mortality [4] was 100%. For the same compound, the “damage of the leaf disc compared with the non-treated disc” value [5] was “clearly smaller”, the “Mortality (%)” value ([6]; after 7 days) was 83% and the “Knock-down percentage (%)” value ([6]; two hours) was 100%. It also gave a knock-down percentage [7] of 100%.
